In PMC8401933 (Molecules, 2021):

Tests used:
Test in all cases: KINOMEscan binding
[1] = target: T1, ABL1(T315I)-nonphosphorylated (Homo sapiens, UniProt P00519, T315I); conditions: read-out: Percent Control
T1 construct: purchased Eurofins DiscoverX KINOMEscan

[2] = target: T2, ERBB4 (Homo sapiens, UniProt Q15303); conditions: read-out: Percent Control
T2 construct: purchased Eurofins DiscoverX KINOMEscan

[3] = target: T3, SNARK (Homo sapiens, UniProt Q9H093); conditions: read-out: Percent Control
T3 construct: purchased Eurofins DiscoverX KINOMEscan
T3 sequence (Q9H093 whole entry): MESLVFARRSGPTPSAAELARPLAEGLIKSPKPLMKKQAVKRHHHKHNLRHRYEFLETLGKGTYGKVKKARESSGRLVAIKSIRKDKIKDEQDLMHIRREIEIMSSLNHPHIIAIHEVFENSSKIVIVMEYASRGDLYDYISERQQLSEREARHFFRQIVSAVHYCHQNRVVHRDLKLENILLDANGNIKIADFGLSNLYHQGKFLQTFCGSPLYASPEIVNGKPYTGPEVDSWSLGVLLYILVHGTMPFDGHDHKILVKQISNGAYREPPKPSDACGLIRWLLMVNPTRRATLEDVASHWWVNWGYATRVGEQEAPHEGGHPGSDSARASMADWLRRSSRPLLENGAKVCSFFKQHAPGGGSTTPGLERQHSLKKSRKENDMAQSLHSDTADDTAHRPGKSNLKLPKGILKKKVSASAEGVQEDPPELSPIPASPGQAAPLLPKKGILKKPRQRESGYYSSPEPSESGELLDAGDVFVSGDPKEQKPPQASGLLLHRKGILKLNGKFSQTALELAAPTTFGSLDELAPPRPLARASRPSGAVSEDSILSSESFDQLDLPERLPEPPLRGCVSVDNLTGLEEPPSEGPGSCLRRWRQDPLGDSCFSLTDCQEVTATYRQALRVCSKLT

[4] = target: T4, WEE1 (Homo sapiens, UniProt P30291); conditions: read-out: Percent Control
T4 construct: purchased Eurofins DiscoverX KINOMEscan

[5] = target: T5, p38-gamma (Homo sapiens, UniProt P53778); conditions: read-out: Percent Control
T5 construct: purchased Eurofins DiscoverX KINOMEscan
T5 sequence (P53778 whole entry): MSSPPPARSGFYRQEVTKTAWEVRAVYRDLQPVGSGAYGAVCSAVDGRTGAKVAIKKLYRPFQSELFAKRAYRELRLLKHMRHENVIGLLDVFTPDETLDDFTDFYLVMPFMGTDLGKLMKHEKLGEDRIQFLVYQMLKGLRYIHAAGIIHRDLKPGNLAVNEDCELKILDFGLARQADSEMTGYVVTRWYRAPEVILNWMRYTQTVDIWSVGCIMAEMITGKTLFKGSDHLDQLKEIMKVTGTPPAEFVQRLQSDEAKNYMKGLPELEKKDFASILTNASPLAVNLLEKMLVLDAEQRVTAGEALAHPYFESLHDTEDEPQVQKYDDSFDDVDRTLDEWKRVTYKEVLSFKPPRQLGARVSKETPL

[6] = target: T6, RSK3(Kin.Dom.1-N-terminal) (Homo sapiens, UniProt Q15349); conditions: read-out: Percent Control
T6 construct: RSK3(Kin.Dom.1-N-terminal); purchased Eurofins DiscoverX KINOMEscan

[7] = target: T7, VRK2 (Homo sapiens, UniProt Q86Y07); conditions: read-out: Percent Control
T7 construct: purchased Eurofins DiscoverX KINOMEscan

[8] = target: T8, CDKL1 (Homo sapiens, UniProt Q00532); conditions: read-out: Percent Control
T8 construct: purchased Eurofins DiscoverX KINOMEscan
T8 sequence (Q00532 whole entry): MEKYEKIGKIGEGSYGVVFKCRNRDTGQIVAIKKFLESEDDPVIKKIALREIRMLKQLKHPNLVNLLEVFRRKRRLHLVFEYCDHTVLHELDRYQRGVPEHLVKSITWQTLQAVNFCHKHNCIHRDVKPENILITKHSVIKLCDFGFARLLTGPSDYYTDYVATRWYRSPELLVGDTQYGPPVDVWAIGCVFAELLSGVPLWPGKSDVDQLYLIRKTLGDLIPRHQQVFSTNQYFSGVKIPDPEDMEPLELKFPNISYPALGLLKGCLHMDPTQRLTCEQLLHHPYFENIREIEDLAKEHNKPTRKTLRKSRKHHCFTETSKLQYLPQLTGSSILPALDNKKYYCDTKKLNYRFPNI

[9] = target: T9, TRKA (Homo sapiens, UniProt P04629); conditions: read-out: Percent Control
T9 construct: purchased Eurofins DiscoverX KINOMEscan

[10] = target: T10, PIK3CA(M1043I) (Homo sapiens, UniProt P42336, M1043I); conditions: read-out: Percent Control
T10 construct: purchased Eurofins DiscoverX KINOMEscan

[11] = target: T11, FGFR4 (Homo sapiens, UniProt P22455); conditions: read-out: Percent Control
T11 construct: purchased Eurofins DiscoverX KINOMEscan

[12] = target: T12, OSR1 (Homo sapiens, UniProt O95747); conditions: read-out: Percent Control
T12 construct: purchased Eurofins DiscoverX KINOMEscan
T12 sequence (O95747 whole entry): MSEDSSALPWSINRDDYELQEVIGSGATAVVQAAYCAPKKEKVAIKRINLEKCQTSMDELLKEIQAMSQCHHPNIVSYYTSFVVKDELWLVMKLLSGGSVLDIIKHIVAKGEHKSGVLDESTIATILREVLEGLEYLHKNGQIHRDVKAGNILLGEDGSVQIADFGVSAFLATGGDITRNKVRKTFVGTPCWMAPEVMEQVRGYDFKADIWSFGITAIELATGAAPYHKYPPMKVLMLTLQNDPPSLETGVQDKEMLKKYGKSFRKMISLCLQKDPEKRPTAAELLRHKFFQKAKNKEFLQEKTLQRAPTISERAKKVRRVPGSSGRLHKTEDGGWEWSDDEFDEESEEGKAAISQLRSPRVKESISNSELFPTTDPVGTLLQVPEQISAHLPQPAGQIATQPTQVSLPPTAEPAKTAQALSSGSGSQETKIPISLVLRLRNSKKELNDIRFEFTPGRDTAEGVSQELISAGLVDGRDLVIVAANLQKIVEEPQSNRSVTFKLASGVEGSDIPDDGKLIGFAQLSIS

[13] = target: T13, DRAK1 (Homo sapiens, UniProt Q9UEE5); conditions: read-out: Percent Control
T13 construct: purchased Eurofins DiscoverX KINOMEscan

[14] = target: T14, WNK1 (Homo sapiens, UniProt Q9H4A3); conditions: read-out: Percent Control
T14 construct: purchased Eurofins DiscoverX KINOMEscan

[15] = target: T15, TRKC (Homo sapiens, UniProt Q16288); conditions: read-out: Percent Control
T15 construct: purchased Eurofins DiscoverX KINOMEscan

[16] = target: T16, STK16 (Homo sapiens, UniProt O75716); conditions: read-out: Percent Control
T16 construct: purchased Eurofins DiscoverX KINOMEscan
T16 sequence (O75716 whole entry): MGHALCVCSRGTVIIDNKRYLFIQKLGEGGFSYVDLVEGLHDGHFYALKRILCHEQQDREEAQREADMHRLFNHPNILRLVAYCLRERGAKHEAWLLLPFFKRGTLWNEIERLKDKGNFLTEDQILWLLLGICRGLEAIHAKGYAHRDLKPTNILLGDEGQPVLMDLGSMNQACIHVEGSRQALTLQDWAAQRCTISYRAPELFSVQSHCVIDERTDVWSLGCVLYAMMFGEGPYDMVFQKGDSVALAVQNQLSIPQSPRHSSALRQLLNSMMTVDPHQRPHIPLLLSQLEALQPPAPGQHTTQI

[17] = target: T17, CSNK1G1 (Homo sapiens, UniProt Q9HCP0); conditions: read-out: Percent Control
T17 construct: purchased Eurofins DiscoverX KINOMEscan

[18] = target: T18, NEK5 (Homo sapiens, UniProt Q6P3R8); conditions: read-out: Percent Control
T18 construct: purchased Eurofins DiscoverX KINOMEscan

[19] = target: T19, ABL1(F317L)-phosphorylated (Homo sapiens, UniProt P00519, F317L); conditions: read-out: Percent Control
T19 construct: purchased Eurofins DiscoverX KINOMEscan

[20] = target: T20, PIK3CA(H1047Y) (Homo sapiens, UniProt P42336, H1047Y); conditions: read-out: Percent Control
T20 construct: purchased Eurofins DiscoverX KINOMEscan

[21] = target: T21, EIF2AK1 (Homo sapiens, UniProt Q9BQI3); conditions: read-out: Percent Control
T21 construct: purchased Eurofins DiscoverX KINOMEscan

[22] = target: T22, IRAK4 (Homo sapiens, UniProt Q9NWZ3); conditions: read-out: Percent Control
T22 construct: purchased Eurofins DiscoverX KINOMEscan

[23] = target: T23, CDK8 (Homo sapiens, UniProt P49336); conditions: read-out: Percent Control
T23 construct: purchased Eurofins DiscoverX KINOMEscan

[24] = target: T24, BRSK2 (Homo sapiens, UniProt Q8IWQ3); conditions: read-out: Percent Control
T24 construct: purchased Eurofins DiscoverX KINOMEscan

[25] = target: T25, CIT (Homo sapiens, UniProt O14578); conditions: read-out: Percent Control
T25 construct: purchased Eurofins DiscoverX KINOMEscan

[26] = target: T26, CLK2 (Homo sapiens, UniProt P49760); conditions: read-out: Percent Control
T26 construct: purchased Eurofins DiscoverX KINOMEscan

[27] = target: T27, GCN2(Kin.Dom.2,S808G) (Homo sapiens, UniProt Q9P2K8, S808G); conditions: read-out: Percent Control
T27 construct: GCN2(Kin.Dom.2,S808G); purchased Eurofins DiscoverX KINOMEscan

[28] = target: T28, SRC (Homo sapiens, UniProt P12931); conditions: read-out: Percent Control
T28 construct: purchased Eurofins DiscoverX KINOMEscan

[29] = target: T29, CDK5 (Homo sapiens, UniProt Q00535); conditions: read-out: Percent Control
T29 construct: purchased Eurofins DiscoverX KINOMEscan

[30] = target: T30, BRAF(V600E) (Homo sapiens, UniProt P15056, V600E); conditions: read-out: Percent Control
T30 construct: purchased Eurofins DiscoverX KINOMEscan

[31] = target: T31, HPK1 (Homo sapiens, UniProt Q92918); conditions: read-out: Percent Control
T31 construct: purchased Eurofins DiscoverX KINOMEscan

[32] = target: T32, GRK1 (Homo sapiens, UniProt Q15835); conditions: read-out: Percent Control
T32 construct: purchased Eurofins DiscoverX KINOMEscan

[33] = target: T33, RIPK1 (Homo sapiens, UniProt Q13546); conditions: read-out: Percent Control
T33 construct: purchased Eurofins DiscoverX KINOMEscan
T33 sequence (Q13546 whole entry): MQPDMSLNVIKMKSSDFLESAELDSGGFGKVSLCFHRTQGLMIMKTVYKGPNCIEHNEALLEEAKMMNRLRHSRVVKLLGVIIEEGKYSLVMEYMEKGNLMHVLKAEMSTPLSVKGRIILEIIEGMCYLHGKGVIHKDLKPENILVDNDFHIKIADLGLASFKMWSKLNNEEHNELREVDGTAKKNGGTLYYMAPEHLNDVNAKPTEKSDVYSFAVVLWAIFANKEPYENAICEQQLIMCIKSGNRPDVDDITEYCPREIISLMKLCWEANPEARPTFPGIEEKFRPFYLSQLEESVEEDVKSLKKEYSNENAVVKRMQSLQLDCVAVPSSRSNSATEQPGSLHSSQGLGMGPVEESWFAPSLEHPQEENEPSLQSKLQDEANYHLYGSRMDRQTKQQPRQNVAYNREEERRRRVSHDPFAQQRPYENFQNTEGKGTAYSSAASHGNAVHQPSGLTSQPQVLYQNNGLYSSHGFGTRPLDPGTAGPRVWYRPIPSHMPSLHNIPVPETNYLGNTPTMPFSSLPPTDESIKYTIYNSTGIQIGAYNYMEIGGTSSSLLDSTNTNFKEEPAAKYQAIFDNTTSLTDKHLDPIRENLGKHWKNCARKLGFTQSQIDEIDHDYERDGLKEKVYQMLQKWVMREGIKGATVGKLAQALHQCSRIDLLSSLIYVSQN

[34] = target: T34, PCTK1 (Homo sapiens, UniProt Q00536); conditions: read-out: Percent Control
T34 construct: purchased Eurofins DiscoverX KINOMEscan
T34 sequence (Q00536 whole entry): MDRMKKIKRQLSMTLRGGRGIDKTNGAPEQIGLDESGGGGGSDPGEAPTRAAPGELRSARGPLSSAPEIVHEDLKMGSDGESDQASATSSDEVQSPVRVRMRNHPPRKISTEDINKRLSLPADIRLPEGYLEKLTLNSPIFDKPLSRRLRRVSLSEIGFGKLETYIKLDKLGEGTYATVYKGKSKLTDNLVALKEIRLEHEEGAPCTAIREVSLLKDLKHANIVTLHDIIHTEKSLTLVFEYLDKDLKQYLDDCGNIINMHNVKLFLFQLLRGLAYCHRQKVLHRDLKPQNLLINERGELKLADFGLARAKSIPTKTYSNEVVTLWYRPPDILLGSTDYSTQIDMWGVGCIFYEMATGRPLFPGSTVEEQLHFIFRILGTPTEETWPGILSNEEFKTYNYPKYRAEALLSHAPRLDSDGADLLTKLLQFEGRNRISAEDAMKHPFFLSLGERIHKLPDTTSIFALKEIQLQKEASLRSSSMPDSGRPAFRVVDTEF

[35] = test system: FLT3(ITD,D835V); set-up: species or system human; conditions: 10 μM
[36] = target: T35, TLK1 (Homo sapiens, UniProt Q9UKI8); conditions: read-out: Percent Control
T35 construct: purchased Eurofins DiscoverX KINOMEscan

[37] = target: T36, TEC (Homo sapiens, UniProt P42680); conditions: read-out: Percent Control
T36 construct: purchased Eurofins DiscoverX KINOMEscan

[38] = target: T37, MST4 (Homo sapiens, UniProt Q9P289); conditions: read-out: Percent Control
T37 construct: purchased Eurofins DiscoverX KINOMEscan
T37 sequence (Q9P289 whole entry): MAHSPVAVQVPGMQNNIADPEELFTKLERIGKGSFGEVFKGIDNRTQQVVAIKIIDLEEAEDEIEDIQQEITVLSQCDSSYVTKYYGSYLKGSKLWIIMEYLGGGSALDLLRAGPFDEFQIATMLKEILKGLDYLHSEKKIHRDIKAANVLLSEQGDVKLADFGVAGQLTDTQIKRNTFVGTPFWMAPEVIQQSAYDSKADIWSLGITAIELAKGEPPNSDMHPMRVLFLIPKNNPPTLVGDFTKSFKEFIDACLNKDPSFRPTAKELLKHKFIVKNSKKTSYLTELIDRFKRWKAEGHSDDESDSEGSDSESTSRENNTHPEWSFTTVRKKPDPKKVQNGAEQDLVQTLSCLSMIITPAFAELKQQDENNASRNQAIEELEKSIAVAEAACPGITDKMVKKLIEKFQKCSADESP

[39] = target: T38, ABL1(H396P)-phosphorylated (Homo sapiens, UniProt P00519, H396P); conditions: read-out: Percent Control
T38 construct: purchased Eurofins DiscoverX KINOMEscan

[40] = target: T39, TAOK1 (Homo sapiens, UniProt Q7L7X3); conditions: read-out: Percent Control
T39 construct: purchased Eurofins DiscoverX KINOMEscan

[41] = target: T40, TNNI3K (Homo sapiens, UniProt Q59H18); conditions: read-out: Percent Control
T40 construct: purchased Eurofins DiscoverX KINOMEscan
T40 sequence (Q59H18 whole entry): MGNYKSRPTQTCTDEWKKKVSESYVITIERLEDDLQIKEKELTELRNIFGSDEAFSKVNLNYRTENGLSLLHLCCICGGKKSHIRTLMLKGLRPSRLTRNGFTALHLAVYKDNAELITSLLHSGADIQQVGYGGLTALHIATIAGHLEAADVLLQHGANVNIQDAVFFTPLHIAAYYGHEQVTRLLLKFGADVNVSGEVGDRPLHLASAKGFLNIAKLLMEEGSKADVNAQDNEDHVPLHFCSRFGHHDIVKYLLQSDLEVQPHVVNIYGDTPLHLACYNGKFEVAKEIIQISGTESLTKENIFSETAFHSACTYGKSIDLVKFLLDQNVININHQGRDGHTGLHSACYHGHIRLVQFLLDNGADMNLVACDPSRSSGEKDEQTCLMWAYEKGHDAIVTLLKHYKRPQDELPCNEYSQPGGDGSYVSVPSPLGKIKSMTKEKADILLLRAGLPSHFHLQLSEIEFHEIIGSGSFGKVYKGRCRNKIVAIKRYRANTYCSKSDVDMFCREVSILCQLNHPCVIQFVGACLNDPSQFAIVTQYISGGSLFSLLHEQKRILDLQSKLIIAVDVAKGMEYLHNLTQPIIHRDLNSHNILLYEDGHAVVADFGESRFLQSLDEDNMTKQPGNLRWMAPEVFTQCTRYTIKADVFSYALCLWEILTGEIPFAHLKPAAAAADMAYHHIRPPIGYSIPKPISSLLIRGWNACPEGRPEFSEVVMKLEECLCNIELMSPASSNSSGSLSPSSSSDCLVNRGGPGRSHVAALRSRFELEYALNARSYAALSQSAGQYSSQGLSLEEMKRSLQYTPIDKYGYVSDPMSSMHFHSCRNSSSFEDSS

[42] = target: T41, TYK2(JH1domain-catalytic) (Homo sapiens, UniProt P29597); conditions: read-out: Percent Control
T41 construct: TYK2(JH1domain-catalytic); purchased Eurofins DiscoverX KINOMEscan
T41 sequence (P29597 888-1187 limits assumed): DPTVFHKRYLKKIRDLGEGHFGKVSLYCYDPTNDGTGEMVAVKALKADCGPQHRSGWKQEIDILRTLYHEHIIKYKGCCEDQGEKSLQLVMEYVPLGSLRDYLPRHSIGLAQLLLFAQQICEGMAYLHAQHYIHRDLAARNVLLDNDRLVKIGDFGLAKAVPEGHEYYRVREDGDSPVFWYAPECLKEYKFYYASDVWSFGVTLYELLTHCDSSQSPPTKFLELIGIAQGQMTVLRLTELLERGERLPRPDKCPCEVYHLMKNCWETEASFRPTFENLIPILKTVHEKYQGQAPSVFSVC

Question: Which remaining binding at 10 µM [1] does the source give for `CC(C)NC(=O)COc1cccc(-c2nc(Nc3ccc4[nH]ncc4c3)c3ccccc3n2)c1` [KD025, 2-(3-(4-((1H-indazol-5-yl)amino)quinazolin-2-yl)phenoxy)-N-isopropylacetamide] here?
Answer: 93%

Question: And the remaining binding at 10 µM [2]?
Answer: 57%

Question: What about the remaining binding at 10 µM [3] of the same compound?
Answer: 71%

Question: What about the remaining binding at 10 µM [4] of the same compound?
Answer: 100%

Question: And the remaining binding at 10 µM [5]?
Answer: 60%

Question: And the remaining binding at 10 µM [6]?
Answer: 31%

Question: And the remaining binding at 10 µM [7]?
Answer: 71%

Question: And the remaining binding at 10 µM [8]?
Answer: 56%

Question: And the remaining binding at 10 µM [9]?
Answer: 61%

Question: What about the remaining binding at 10 µM [10] of the same compound?
Answer: 48%

Question: And the remaining binding at 10 µM [11]?
Answer: 91%

Question: And the remaining binding at 10 µM [12]?
Answer: 100%

Question: And the remaining binding at 10 µM [13]?
Answer: 39%

Question: What about the remaining binding at 10 µM [14] of the same compound?
Answer: 94%

Question: And the remaining binding at 10 µM [15]?
Answer: 100%

Question: What about the remaining binding at 10 µM [16] of the same compound?
Answer: 62%

Question: What about the remaining binding at 10 µM [17] of the same compound?
Answer: 70%

Question: What about the remaining binding at 10 µM [18] of the same compound?
Answer: 83%

Question: And the remaining binding at 10 µM [19]?
Answer: 98%

Question: And the remaining binding at 10 µM [20]?
Answer: 87%

Question: What about the remaining binding at 10 µM [21] of the same compound?
Answer: 77%

Question: What about the remaining binding at 10 µM [22] of the same compound?
Answer: 100%

Question: And the remaining binding at 10 µM [23]?
Answer: 98%

Question: What about the remaining binding at 10 µM [24] of the same compound?
Answer: 95%

Question: And the remaining binding at 10 µM [25]?
Answer: 75%

Question: And the remaining binding at 10 µM [26]?
Answer: 51%

Question: What about the remaining binding at 10 µM [27] of the same compound?
Answer: 100%

Question: And the remaining binding at 10 µM [28]?
Answer: 87%

Question: What about the remaining binding at 10 µM [29] of the same compound?
Answer: 83%

Question: And the remaining binding at 10 µM [30]?
Answer: 91%

Question: And the remaining binding at 10 µM [31]?
Answer: 76%

Question: What about the remaining binding at 10 µM [32] of the same compound?
Answer: 64%

Question: And the remaining binding at 10 µM [33]?
Answer: 86%

Question: What about the remaining binding at 10 µM [34] of the same compound?
Answer: 91%

Question: And the “Percent Control” value [35]?
Answer: 28%

Question: And the remaining binding at 10 µM [36]?
Answer: 100%

Question: What about the remaining binding at 10 µM [37] of the same compound?
Answer: 95%

Question: And the remaining binding at 10 µM [38]?
Answer: 88%

Question: What about the remaining binding at 10 µM [39] of the same compound?
Answer: 82%

Question: And the remaining binding at 10 µM [40]?
Answer: 71%

Question: And the remaining binding at 10 µM [41]?
Answer: 92%

Question: What about the remaining binding at 10 µM [42] of the same compound?
Answer: 95%
